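Following 48 hours of exposure in 96-well plates, responses at five concentrations were used to interpolate endpoints linearly. GI50 marks 50% less growth.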 Activity calls are given as the source filed them. Rule as the data show it: active = GI50 up to about 1.1 µM and inactive = higher.
Tests used:
Experiment in all cases: NCI anticancer screen, dose series, 48 h
HCT-15 = tested on: HCT-15
UACC-257 = tested on: UACC-257
K562 = tested on: K562
SF-268 = tested on: SF-268
HCC 2998 = tested on: HCC 2998
HOP-92 = tested on: HOP-92
Hs-578T = tested on: Hs-578T
SK-OV-3 = tested on: SK-OV-3
SK-MEL-5 = tested on: SK-MEL-5
UACC-62 = tested on: UACC-62
SNB-75 = tested on: SNB-75
OVCAR-3 = tested on: OVCAR-3
KM12 = tested on: KM12
NCI-H23 = tested on: NCI-H23
EKVX = tested on: EKVX
SN12C = tested on: SN12C
SNB-19 = tested on: SNB-19
RPMI-8226 = tested on: RPMI-8226
HL-60 = tested on: HL-60
RXF 393 = tested on: RXF 393

SMILES	GI50 (HCT-15) [µM]	GI50 (UACC-257)	GI50 (K562)	GI50 (SF-268)	GI50 (HCC 2998)	GI50 (HOP-92)	GI50 (Hs-578T)	GI50 (SK-OV-3)	GI50 (SK-MEL-5)	GI50 (UACC-62)	GI50 (SNB-75)	GI50 (OVCAR-3)	GI50 (KM12)	GI50 (NCI-H23)	GI50 (EKVX)	GI50 (SN12C)	GI50 (SNB-19)	GI50 (RPMI-8226)	GI50 (HL-60)	GI50 (RXF 393)
COc1ccc(N2C(=O)C3c4[nH]c5ccccc5c4C4CCC(C(C)C)CC4C3C2=O)cc1 (configuration not stated)	> 100	> 100 µM (inactive)	> 100 µM (inactive)	> 100 µM (inactive)	> 100 µM (inactive)	> 100 µM (inactive)	40.7 µM (inactive)	37.6 µM (inactive)	> 100 µM (inactive)	> 100 µM (inactive)	35.2 µM (inactive)	> 100 µM (inactive)	> 100 µM (inactive)	> 100 µM (inactive)	> 100 µM (inactive)	> 100 µM (inactive)	> 100 µM (inactive)	> 100 µM (inactive)		
COc1cc2ccc(C(=O)NCCCNC(=O)c3ccc4cc(OC)c(OC)cc4c3)cc2cc1OC	> 100	> 100 µM (inactive)	> 100 µM (inactive)	> 100 µM (inactive)	> 100 µM (inactive)	> 100 µM (inactive)	36.6 µM (inactive)	> 100 µM (inactive)	> 100 µM (inactive)	> 100 µM (inactive)	32.9 µM (inactive)	> 100 µM (inactive)	> 100 µM (inactive)	> 100 µM (inactive)	> 100 µM (inactive)	> 100 µM (inactive)	> 100 µM (inactive)		> 100 µM (inactive)	
O=C(O)C(Cc1ccc2c(c1)CCC2)(Cc1ccc2c(c1)CCC2)C(=O)O	> 100	> 100 µM (inactive)	> 100 µM (inactive)	> 100 µM (inactive)	> 100 µM (inactive)		> 100 µM (inactive)	> 100 µM (inactive)	> 100 µM (inactive)	> 100 µM (inactive)	> 100 µM (inactive)	> 100 µM (inactive)	> 100 µM (inactive)	> 100 µM (inactive)	> 100 µM (inactive)	> 100 µM (inactive)	> 100 µM (inactive)	> 100 µM (inactive)	> 100 µM (inactive)	> 100 µM (inactive)
CC1(C)C(=O)/C=C\C(=O)C(C)(C)C(=O)/C=C\C(=O)C(C)(C)C(=O)/C=C\C(=O)C(C)(C)C(=O)/C=C\C1=O	20.4	23.3 µM (inactive)	5.43 µM (inactive)	> 45.9 µM (inactive)		12.7 µM (inactive)	> 100 µM (inactive)	> 70 µM (inactive)	22.6 µM (inactive)	21.9 µM (inactive)	> 60 µM (inactive)	23.8 µM (inactive)	40 µM (inactive)	21.4 µM (inactive)	39.6 µM (inactive)	24.3 µM (inactive)	52.5 µM (inactive)	4.97 µM (inactive)	3 µM (inactive)	17.9 µM (inactive)
CCC12CCCN(Cc3ccccc3)C1c1c([nH]c3ccccc13)C(C(=O)OC)C2 (configuration not stated)	> 10	> 10 µM (inactive)	> 10 µM (inactive)	> 10 µM (inactive)	> 10 µM (inactive)	> 10 µM (inactive)	> 10 µM (inactive)	> 10 µM (inactive)	> 10 µM (inactive)	> 10 µM (inactive)	> 10 µM (inactive)	> 10 µM (inactive)	> 10 µM (inactive)	8.38 µM (inactive)		> 10 µM (inactive)	> 10 µM (inactive)	> 10 µM (inactive)	7.83 µM (inactive)	
C=C1[C@@H]([C@@]2(C)C=CC(=O)C(C)(C)[C@@H]2CC(=O)OC)CC[C@@]2(C)[C@H](c3ccoc3)OC(=O)[C@H]3O[C@]132 [ANDIROBIN]	> 100	> 100 µM (inactive)		> 100 µM (inactive)	> 100 µM (inactive)	> 100 µM (inactive)	> 100 µM (inactive)	> 100 µM (inactive)	68.2 µM (inactive)	77.4 µM (inactive)	46.2 µM (inactive)	> 100 µM (inactive)	> 100 µM (inactive)	> 100 µM (inactive)	> 100 µM (inactive)	> 100 µM (inactive)	> 100 µM (inactive)		62.8 µM (inactive)	
CC(C)[Si](Oc1ccc(CC2N(C(=O)c3ccc([N+](=O)[O-])cc3)C(CCc3ccccc3)CC2(C)C=O)cc1)(C(C)C)C(C)C (configuration not stated)	5.6	> 100 µM (inactive)		19.4 µM (inactive)	> 100 µM (inactive)	13.9 µM (inactive)	32 µM (inactive)	27.7 µM (inactive)		> 100 µM (inactive)		> 100 µM (inactive)		27.8 µM (inactive)	82.6 µM (inactive)		15.6 µM (inactive)	> 100 µM (inactive)		5.85 µM (inactive)
O=C1/C(=C\c2ccc([N+](=O)[O-])cc2)Sc2scc(-c3ccc(O)c(O)c3)[n+]21	2.33	6.87 µM (inactive)	3.4 µM (inactive)	4.94 µM (inactive)	4.97 µM (inactive)	6.4 µM (inactive)	14.7 µM (inactive)	12.7 µM (inactive)	3.87 µM (inactive)	5.61 µM (inactive)	9.25 µM (inactive)	2.51 µM (inactive)	10.9 µM (inactive)	14.9 µM (inactive)	14.2 µM (inactive)	4.5 µM (inactive)	21.6 µM (inactive)	2.55 µM (inactive)	2.37 µM (inactive)	

From ChEMBL document CHEMBL1201862, “PubChem BioAssay data set” (2004)
